Measured values published in patent publication US5919761A, “Peptides for heparin and low molecular weight heparin anticoagulation reversal” (The Board of Regents of the University of Michigan, priority 1995, dated 1999).
Peptide text beside a SMILES is read from it.

Columns and labels:
[1] = Platelet count, leukocyte count and bleeding time after LMWH reversal at different rates, canine study; format: in vivo, dogs; conditions: dogs, Logiparin; administered over 10 sec
Protocol: The anticoagulation-reversing agents were administered rapidly over 10 seconds to maximize hemodynamic effects or more slowly over a 3 minute interval. Changes in LMWH anticoagulation occurring from metabolism alone were determined in a separate group of dogs not given any reversal agent.

[2] = tested on: standard, unfractionated heparin; assay: Percent reversal of standard heparin anticoagulation by variant peptides and protamine, in vivo canine study, coagulation tests; parameters: species or system dogs; conditions: for Percent reversal of heparin anticoagulation, ACT: heparin 150 IU/kg IV, agent 1.5 mg/kg IV over 10 seconds
Protocol: Data are expressed as a mean ±1 SD. Statistical analysis using linear regression for determination of correlation coefficients, and analysis of variance (ANOVA) or unpaired two-way Student's t-test; p<0.05 was accepted as statistically significant.
(§1) Anticoagulation reversal was assessed by a number of standard coagulation tests performed upon samples of venous blood: activated clotting time (ACT), prothrombin time (PT), activated partial thromboplastin time (aPTT), thrombin clotting time (TCT), heparin concentration by assay for FXa inhibitory activity (FXa), white cell count (WBC), and platelet counts (PLT). Measurements were made 3 minutes prior to heparin reversal (baseline) and 3 minutes and 30 minutes post-administration of the heparin reversal agent. The "Heparin" row sets forth the observed reversal as a consequence of expected heparin metabolism or degradation alone.

[3] = Hemodynamic studies and total toxicity score after standard heparin reversal, canine study; conditions: dogs; for ΔMAP: average maximum decline in first five minutes after peptide administration; for average total toxicity score (TTS±SD): first 5 minutes after reversal, more negative = more toxic; for ΔCO / ΔVO2: maximum percent change
Protocol: As used hereinafter, the peptides will be identified by their total cationic charge value, e.g., [+8], [+16], etc.
Hemodynamic studies were conducted by measuring mean arterial pressure (MAP), heart rate (HR), and maximum percent changes in cardiac output (CO) and systemic oxygen consumption (VO2).
Total toxicity scores (TTS) were developed that reflected maximum declines in each of four parameters (MAP, CO, VO2 and HR) over the first 5 minutes after reversal, the latter being the time of expected greatest adverse hemodynamic effect. The maximum changes occurring in an individual dog over the first 5 minutes were divided by the standard deviation derived from the entire group of tested animals and the four scores were added, resulting in a TTS for each individual dog. The TTS values for each dog were then summed to obtain an average TTS and SD for each peptide studied.

[4] = Platelet and white cell counts after standard heparin reversal, canine study; format: in vivo; conditions: dogs, 3 minutes post-reversal, resolved by about 30 minutes
Protocol: as §1

| Compound | Maximal thrombocytopenia [1] [%] | in vivo heparin reversal (summary) ([2]; dogs, standard heparin) | Percent reversal of heparin anticoagulation, ACT ([2]; dogs, 3 min post-administration) [%] | Percent reversal of heparin anticoagulation, ACT ([2]; dogs, 30 min) [%] | Percent reversal of heparin anticoagulation, APTT ([2]; same study, 3 min) [%] | Percent reversal of heparin anticoagulation, FNa ([2]; same study, 3 min) [%] | Percent reversal of heparin anticoagulation, FXa ([2]; same study, 3 min) [%] | Percent reversal of heparin anticoagulation, PT ([2]; same study, 3 min) [%] | Percent reversal of heparin anticoagulation, TCT ([2]; same study, 3 min) [%] | Percent reversal of heparin anticoagulation, APTT ([2]; same study, 30 min) [%] | Percent reversal of heparin anticoagulation, FXa ([2]; same study, 30 min) [%] | Percent reversal of heparin anticoagulation, PT ([2]; same study, 30 min) [%] | Percent reversal of heparin anticoagulation, TCT ([2]; same study, 30 min) [%] | ΔHR [3] | ΔMAP [3] | average total toxicity score (TTS±SD) [3] | ΔCO [3] [%] | ΔVO2 [3] [%] | platelet counts [4] |
| --- | --- | --- | --- | --- | --- | --- | --- | --- | --- | --- | --- | --- | --- | --- | --- | --- | --- | --- | --- |
| PK4 S3 KPVK6 PKVSK6 G2 K4 [[+21]] | -43 | nearly complete reversal | 81 | 85 | 88 | 59 | 55 | 97 | 91 | 85 | 49 | 93 | 79 | -21 | -35 | -6.9±3.8 | -44 | -38 | thrombocytopenia |
| NCCCC[C@H](NC(=O)[C@H](CCCCN)NC(=O)[C@H](CCCCN)NC(=O)[C@H](CCCCN)NC(=O)CNC(=O)CNC(=O)[C@H](CCCCN)NC(=O)[C@H](CCCCN)NC(=O)[C@H](CCCCN)NC(=O)[C@H](CCCCN)NC(=O)CNC(=O)CNC(=O)[C@H](CCCCN)NC(=O)[C@H](CCCCN)NC(=O)[C@H](CCCCN)NC(=O)[C@H](CCCCN)NC(=O)CNC(=O)CNC(=O)[C@H](CCCCN)NC(=O)[C@H](CCCCN)NC(=O)[C@H](CCCCN)NC(=O)[C@H](CCCCN)NC(=O)CNC(=O)CNC(=O)[C@H](CCCCN)NC(=O)[C@H](CCCCN)NC(=O)[C@H](CCCCN)NC(=O)[C@H](CCCCN)NC(=O)[C@@H]1CCCN1)C(=O)O [[+20], P(K4 G2)4 K4] (H-PKKKKGGKKKKGGKKKKGGKKKKGGKKKK-OH) |  |  |  |  |  |  |  |  |  |  |  |  |  | -38 | -31 | -6.1±3.5 | -40 | -31 | thrombocytopenia |
